This is an account of results in publication PMC3329467, “Stereoselective Regulations of P-Glycoprotein by Ginsenoside Rh2 Epimers and the Potential Mechanisms From the View of Pharmacokinetics” (PLoS ONE, 2012).

Like-named read-outs stand apart in the source and are kept apart here.

The nature of data set [1]: Oral pharmacokinetics of 20(S)-Rh2 and 20(R)-Rh2 in rats (stereoselective LC-MS). It counts as in vivo, rat. The settings on record: for Detection in plasma: after oral administration of 20(R)-Rh2, rats; for Cmax / Tmax / MRT last: Sprague-Dawley, rat, po; for MRT last: read-out: MRT 0-t (converted); for Inverted proportion (chiral inversion): after oral administration of a single configuration of Rh2, rats. As to the method:
To investigate the differences of pharmacokinetic characteristics between 20(S)-Rh2 and 20(R)-Rh2, rats were divided into 2 groups with five rats for each group. One received a single dose of 20(S)-Rh2 intragastrically at 25 mg/kg suspended in 0.5% CMC-Na, while the other received 20(R)-Rh2 at the same dosage. Blood samples were collected at 0, 30, 60, 180, 240, 300, 360, 480, 660 and 840 min after oral administration into heparinized tubes. Plasma was obtained by centrifugation at 5000 g for 10 min and stored at −20°C before analysis.
The 20(S)-Rh2, 20(R)-Rh2 and the deglycosylation metabolites 20(S)-Ppd and 20(R)-Ppd were quantified simultaneously by reversed-phase LC-MS. An aliquot of 100 µl sample spiked with digitoxin as internal standard was extracted by 1 ml ethylacetate. The analysis was performed on Finnigan LC-MS system (Thermo Electron, San Jose, CA, USA) with a Lux Cellulose-1 Chiral Column (250×4.6 mm, 5 µm, Phenomenex, USA). The column and autosampler tray temperatures were 40 and 4°C, respectively. The mobile phase was consisted of methanol, acetonitrile and 0.1% formic acid with gradient elution (Table 5). Mass spectrometer was operated in positive ESI mode. MS parameters were as follows: spray voltage, 5.0 kV; sheath gas/auxiliary gas, nitrogen; sheath gas pressure, 35×10^5 Pa; auxiliary gas pressure, 20×10^5 Pa; ion transfer capillary temperature, 300°C. Quantification was performed using SIM mode with [M+Na]^+ peak: m/z 645.4 for Rh2; m/z 483.3 for Ppd; m/z 787.5 for digitoxin (internal standard).
(§1) The pharmacokinetic parameters of digoxin, 20(S)-Rh2 and 20(R)-Rh2 in rats were obtained by noncompartmental analysis using DAS (Drug and Statistics, version 2.1, Chinese Pharmacological Society). The area under the plasma concentration-time curve (AUC) was calculated using the trapezoidal method.

In data set [2] the test system is P-gp. Kind of data set: Effects of Rh2 epimers on oral pharmacokinetics of P-gp substrate digoxin in rats. It counts as in vivo, rat. How it is done: The rats were divided into five groups with five each. One group of rats received i.g. single dose of the vehicle (0.5% CMC-Na) serving as the control. Two groups were i.g. administered 20(S)-Rh2 suspended in 0.5% CMC-Na at the doses of 5 mg/kg and 50 mg/kg respectively, while another two groups i.g. administration of 20(R)-Rh2 suspended in 0.5% CMC-Na at the doses of 5 mg/kg and 50 mg/kg respectively. Two hours later, P-gp substrate, digoxin (0.25 mg/kg) was given to the rats by i.g. administration. Blood samples were collected before the P-gp substrate dosing and at 0.08, 0.17, 0.25, 0.5, 1, 2, 3, 6, 8 h post-digoxin-dosing. Plasma was obtained by centrifugation at 5000 g for 10 min and stored at −20°C before analysis. Plasma concentrations of digoxin were determined as described previously.
as §1

For data set [3], the target named is T1, P-gp (Homo sapiens, UniProt P08183).
T1 construct: host or cells: Caco-2 cell monolayers
T1 sequence (P08183 whole entry): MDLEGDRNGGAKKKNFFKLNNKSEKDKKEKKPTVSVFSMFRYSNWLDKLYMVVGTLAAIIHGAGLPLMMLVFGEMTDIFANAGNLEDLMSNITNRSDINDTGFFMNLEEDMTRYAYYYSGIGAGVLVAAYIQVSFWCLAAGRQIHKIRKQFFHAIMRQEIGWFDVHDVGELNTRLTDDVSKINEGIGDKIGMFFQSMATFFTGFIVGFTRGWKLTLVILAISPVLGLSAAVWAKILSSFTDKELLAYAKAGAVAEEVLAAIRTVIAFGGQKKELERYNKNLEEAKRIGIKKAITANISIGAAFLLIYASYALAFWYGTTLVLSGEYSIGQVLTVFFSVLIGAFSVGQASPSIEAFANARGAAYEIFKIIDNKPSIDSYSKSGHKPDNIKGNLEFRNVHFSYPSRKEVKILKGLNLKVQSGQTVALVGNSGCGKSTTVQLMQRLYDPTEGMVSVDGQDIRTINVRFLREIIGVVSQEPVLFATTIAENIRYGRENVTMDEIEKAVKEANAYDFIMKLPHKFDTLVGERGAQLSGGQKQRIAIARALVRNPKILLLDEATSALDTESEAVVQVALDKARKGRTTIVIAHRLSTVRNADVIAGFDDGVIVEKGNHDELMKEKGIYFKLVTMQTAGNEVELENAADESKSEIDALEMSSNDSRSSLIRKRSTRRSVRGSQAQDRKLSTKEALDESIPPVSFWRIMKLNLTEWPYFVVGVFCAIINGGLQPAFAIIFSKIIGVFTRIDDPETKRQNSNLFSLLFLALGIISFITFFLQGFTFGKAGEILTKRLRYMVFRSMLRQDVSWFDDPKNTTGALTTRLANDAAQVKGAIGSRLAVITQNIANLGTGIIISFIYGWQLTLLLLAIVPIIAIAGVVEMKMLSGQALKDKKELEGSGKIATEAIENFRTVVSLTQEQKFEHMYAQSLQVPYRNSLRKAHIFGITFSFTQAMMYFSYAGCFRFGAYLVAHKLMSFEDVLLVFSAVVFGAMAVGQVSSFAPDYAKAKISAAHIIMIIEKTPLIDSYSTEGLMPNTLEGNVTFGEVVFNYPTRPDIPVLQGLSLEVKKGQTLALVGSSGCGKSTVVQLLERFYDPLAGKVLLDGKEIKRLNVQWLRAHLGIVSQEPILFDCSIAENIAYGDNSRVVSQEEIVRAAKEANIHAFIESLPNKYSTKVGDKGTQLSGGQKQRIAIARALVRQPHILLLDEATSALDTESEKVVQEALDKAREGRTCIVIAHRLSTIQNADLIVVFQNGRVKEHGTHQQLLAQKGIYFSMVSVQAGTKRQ
Put plainly: P-gp mediated bidirectional transport of digoxin across Caco-2 cell monolayers. The class given is cell-based. How it is done: The Caco-2 cell transport model was established as described previously. Then, Hank's balanced salt solution (HBSS) containing 20(S)-Rh2, 20(R)-Rh2, 20(S)-Ppd, 20(R)-Ppd or 0.1% DMSO (control) was loaded into both apical and basolateral chambers. After incubation at 37°C for 1 h, 5 µM digoxin was added to either apical or basolateral side to evaluate the transport in absorptive and secretory direction respectively. After incubation for just another 2 h, samples were taken from the receiving chamber for analysis. Verapamil (10 µM) was used as a positive control. Digoxin was determined by LC-MS/MS. All experiments were conducted in triplicate.
For the transport assay, the apparent permeability coefficient (Papp) and efflux ratio (ER) were calculated as reported previously.
In general terms: Passage across Caco-2 layers is used to estimate intestinal permeability.

The subject of another data set is osteoclastgenesis. The conditions noted are these: cited from earlier work.
A further data set relates to osteoclasts. The conditions noted are these: cited from earlier work.
Details of data set [4]: method as in PMID 19524010. The settings on record: 1–9 mg/kg i.g., rats; cited from earlier work.
In data set [5] the test system is androgen-dependent and –independent prostate cancer cells. On the set-up: method as in PMID 20554003. The settings on record: cited from earlier work.
The test system of the next data set is P-glycoprotein (P-gp). The conditions noted are these: in vitro and in vivo; cited from earlier work.
The subject of a further data set is human fecal microflora. On the set-up: method as in PMID 11824558. The conditions noted are these: cited from earlier work.
The test system of data set [6] is Ca^2+, K^+ and Na^+ channel. Further details: method as in PMID 15650337, PMID 15979567. The conditions noted are these: dose- and voltage-dependent; cited from earlier work.
The mark [7] stands for this setting: in vivo, 25 mg/kg, after oral administration of the same epimer, rats.
The mark [8] stands for this setting: in vivo, 25 mg/kg, plasma analyte after i.g. 20(R)-Rh2 25 mg/kg, rats.
Setting [9] is: in vivo, 25 mg/kg, plasma analyte after i.g. 20(S)-Rh2 25 mg/kg, rats.
[10] abbreviates: plasma analyte after i.g. 20(R)-Rh2 25 mg/kg, rats.
The mark [11] stands for this setting: plasma analyte after i.g. 20(S)-Rh2 25 mg/kg, rats.
[12] abbreviates: 1 h preincubation, 5 µM digoxin 2 h, concentration series.

For `CC(C)=CCC[C@@](C)(O)[C@H]1CC[C@]2(C)[C@@H]1[C@H](O)C[C@@H]1[C@@]3(C)CC[C@H](O)C(C)(C)[C@@H]3CC[C@]12C` [Ppd, protopanaxadiol], the Detection in plasma result in [1] is “no Ppd was found”.
As a reminder, the Tmax is the time from dosing to the highest level. As to `CC(C)=CCC[C@@](C)(O)[C@H]1CC[C@]2(C)[C@@H]1[C@H](O)C[C@@H]1[C@@]3(C)CC[C@H](O[C@@H]4O[C@H](CO)[C@@H](O)[C@H](O)[C@H]4O)C(C)(C)[C@@H]3CC[C@]12C` [20(R)-Rh2, 20(R)-ginsenoside Rh2], in the data set with P-gp [2] (5 mg/kg i.g. prior to i.g. digoxin), the “Effect on AUC and Cmax of digoxin” value is “significantly enhanced”. Also, the “Effect on absorption of digoxin compared with control group” value in the data set on P-gp [2] (50 mg/kg i.g. prior to i.g. digoxin) was “not changed significantly”. The Cmax in data set [1] (setting [7]) is ≤ 0.05 µM; in data set [1] (setting [8]), 0.029 ± 0.005 µg/mL; in [1] (setting [9]), 0.017 ± 0.002 µg/mL. For the same compound, the time of peak concentration (Tmax) was 4.75 h in data set [1] (setting [8]) and 2.1 h in [1] (setting [9]). The results for the MRT last in data set [1] (setting [8]) and in data set [1] (setting [9]) were 4.65 h and 2.38 h, respectively. Further, the “Inverted proportion (chiral inversion)” value in data set [1] is on record as ~10%. Also, the “AUC 0-t” value in data set [1] (setting [10]) came out at 13204 ± 2322 µg·min/L; in data set [1] (setting [11]) it was 8648 ± 1871 µg·min/L. The “Effect on efflux ratio of digoxin across Caco-2 cell monolayers” value (“Effect on efflux ratio” for short) is “significantly lowered the efflux ratio of digoxin” at P-gp [3] (1 µM, 5 µM digoxin) and “the efflux ratio of digoxin were restored” at P-gp [3] (elevated concentrations, 5 µM digoxin). Moreover, in the data set with osteoclastgenesis, the Osteoclastgenesis inhibition entry is on record as “selective osteoclastgenesis inhibitor”. The Cytotoxicity in osteoclasts result with osteoclasts was “without any cytotoxicity”.
`CC(C)=CCC[C@](C)(O)[C@H]1CC[C@]2(C)[C@@H]1[C@H](O)C[C@@H]1[C@@]3(C)CC[C@H](O[C@@H]4O[C@H](CO)[C@@H](O)[C@H](O)[C@H]4O)C(C)(C)[C@@H]3CC[C@]12C` [Rh2, ginsenoside Rh2]: in data set [4], the Absolute bioavailability is reported as 4.0–6.4%.
For the compound `CC(C)=CCC[C@](C)(O)[C@H]1CC[C@]2(C)[C@@H]1[C@H](O)C[C@@H]1[C@@]3(C)CC[C@H](O[C@@H]4O[C@H](CO)[C@@H](O)[C@H](O)[C@H]4O)C(C)(C)[C@@H]3CC[C@]12C` [20(S)-Rh2, 20(S)-ginsenoside Rh2], the Cmax in [1] (setting [7]) is ~1 µM; in data set [1] (setting [8]), 0.005 ± 0.001 µg/mL; in [1] (setting [9]), 0.572 ± 0.162 µg/mL. Besides, the Tmax was 2.33 h in data set [1] (setting [8]) and 3.45 h in [1] (setting [9]). Also, the MRT last in data set [1] (setting [8]) is 2.2 h; in data set [1] (setting [9]) it was 3.35 h. Moreover, in data set [1], the “Inverted proportion (chiral inversion)” value is on record as ~10%. The “AUC 0-t” value in [1] (setting [10]) stood at 1193 ± 230 µg·min/L; in [1] (setting [11]) it was 149888 ± 40725 µg·min/L. The “AUC higher than that of 20(R)-Rh2” value in [1] (same oral dosage, rats) is given as 10 fold. On P-gp [3] (setting [12]), the “Effect on efflux ratio” value is recorded as “decreased the efflux ratio of digoxin crossing Caco-2 cell monolayers in a concentration-dependent manner”. Moreover, the “Inhibition of proliferation of prostate cancer cells” value in data set [5] is “inhibited the proliferation”. In addition, in the data set with osteoclastgenesis, the Osteoclastgenesis inhibition entry is “weak osteoclastgenesis inhibition”. Moreover, the Cytotoxicity in osteoclasts entry in the data set with osteoclasts is “strong cytotoxicity”. Further, the P-gp inhibition entry in the data set on P-glycoprotein (P-gp) was “effective P-gp inhibitor both in vitro and in vivo”.
For the compound `CC(C)=CCC[C@](C)(O)[C@H]1CC[C@]2(C)[C@@H]1[C@H](O)C[C@@H]1[C@@]3(C)CC[C@H](O[C@@H]4O[C@H](CO)[C@@H](O)[C@H](O)[C@H]4O[C@@H]4O[C@H](CO)[C@@H](O)[C@H](O)[C@H]4O)C(C)(C)[C@@H]3CC[C@]12C` [20(S)-ginsenoside Rg3], the “Amount transformed to 20(S)-ginsenoside Rh2, higher than 20(R)-Rg3 to 20(R)-Rh2” value in the data set on human fecal microflora is recorded as 19 fold. Moreover, in data set [6], the “Inhibition of Ca^2+, K^+ and Na^+ channel currents” value was “inhibited”.
As for `CC(C)=CCC[C@](C)(O)[C@H]1CC[C@]2(C)[C@@H]1[C@H](O)C[C@@H]1[C@@]3(C)CC[C@H](O)C(C)(C)[C@@H]3CC[C@]12C` [20(S)-Ppd, 20(S)-protopanaxadiol], in data set [1] (setting [11]), the Cmax worked out at 0.085 ± 0.007 µg/mL, the Tmax was 8.67 h, the MRT last was 9.05 h and the “AUC 0-t” value is 35129 ± 2261 µg·min/L. In addition, on P-gp [3] (setting [12]), the “Effect on efflux ratio” value was “lowered the efflux ratio of digoxin across Caco-2 cell monolayers concentration-dependently”.
As for `C[C@H]1O[C@@H](O[C@H]2[C@@H](O)C[C@H](O[C@H]3[C@@H](O)C[C@H](O[C@H]4CC[C@@]5(C)[C@H](CC[C@@H]6[C@@H]5C[C@@H](O)[C@]5(C)[C@@H](C7=CC(=O)OC7)CC[C@]65O)C4)O[C@@H]3C)O[C@@H]2C)C[C@H](O)[C@@H]1O` [Digoxin], in the data set on P-gp [2] (Sprague-Dawley (SD), rat, plasma, po, digoxin 0.25 mg/kg i.g., control (no Rh2)), the Cmax was determined as 0.0099 ± 0.0026 µM. The AUC 0-t in the data set with P-gp [2] (Sprague-Dawley (SD), rat, plasma, po, digoxin 0.25 mg/kg i.g., control (no Rh2), read-out: AUC 0–12 of digoxin) was 15.4 ± 2.9 nM·h. The MRT last in the data set with P-gp [2] (Sprague-Dawley (SD), rat, plasma, po, digoxin 0.25 mg/kg i.g., control (no Rh2), read-out: MRT0–12 of digoxin) stood at 1.7 ± 0.6 h. In addition, the half-life in the data set on P-gp [2] (Sprague-Dawley (SD), rat, plasma, po, digoxin 0.25 mg/kg i.g., control (no Rh2), read-out: t1/2 of digoxin (converted)) is 1.2 ± 0.4 h.
As to `CC(C)=CCC[C@@](C)(O)[C@H]1CC[C@]2(C)[C@@H]1[C@H](O)C[C@@H]1[C@@]3(C)CC[C@H](O)C(C)(C)[C@@H]3CC[C@]12C` [20(R)-Ppd, 20(R)-protopanaxadiol], in data set [1], the Detection in plasma entry is on record as “not detected”. The “Effect on efflux ratio” value on P-gp [3] (setting [12]) was “lowered the efflux ratio of digoxin across Caco-2 cell monolayers concentration-dependently”.
For `CC(C)=CCC[C@](C)(O)[C@H]1CC[C@]2(C)[C@@H]1[C@H](O)C[C@@H]1[C@@]3(C)CC[C@H](O[C@@H]4O[C@H](CO)[C@@H](O)[C@H](O)[C@H]4O[C@@H]4O[C@H](CO)[C@@H](O)[C@H](O)[C@H]4O)C(C)(C)[C@@H]3CC[C@]12C` [20(R)-ginsenoside Rg3], in data set [6], the “Inhibition of Ca^2+, K^+ and Na^+ channel currents” value is listed as “not”.
